Values after ≈ are worked out from the molar mass of the structure shown.
Tests used:
[1] = Metabolic stability in rat liver microsomes assessed as parent compound remaining at 1 uM in presence of NADPH generating system measured after 20 mins by LC-MS/MS analysis; assay type: ADME, Microsome; settings: read-out: Stability
[2] = Drug degradation in HCL/CH2Cl2 by TLC analysis; assay type: physicochemical; settings: read-out: Drug degradation
[3] = Solubility of the compound in JP1 fluid at pH 1.2; assay type: physicochemical
[4] = Solubility of the compound in JP2 buffer at pH 6.8; assay type: physicochemical
[5] = molecular target: T1, Parathyroid hormone/parathyroid hormone-related peptide receptor (Homo sapiens, UniProt Q03431); experiment: Antagonist activity at PTHR1 (unknown origin) expressed in CHOK1 cells co-expressing Gs/Gq assessed as reduction in human PTH (1 to 34 residues)-induced cAMP level incubated for 30 mins; assay type: functional, cell-based, CHO-K1
T1 sequence (Q03431 whole entry): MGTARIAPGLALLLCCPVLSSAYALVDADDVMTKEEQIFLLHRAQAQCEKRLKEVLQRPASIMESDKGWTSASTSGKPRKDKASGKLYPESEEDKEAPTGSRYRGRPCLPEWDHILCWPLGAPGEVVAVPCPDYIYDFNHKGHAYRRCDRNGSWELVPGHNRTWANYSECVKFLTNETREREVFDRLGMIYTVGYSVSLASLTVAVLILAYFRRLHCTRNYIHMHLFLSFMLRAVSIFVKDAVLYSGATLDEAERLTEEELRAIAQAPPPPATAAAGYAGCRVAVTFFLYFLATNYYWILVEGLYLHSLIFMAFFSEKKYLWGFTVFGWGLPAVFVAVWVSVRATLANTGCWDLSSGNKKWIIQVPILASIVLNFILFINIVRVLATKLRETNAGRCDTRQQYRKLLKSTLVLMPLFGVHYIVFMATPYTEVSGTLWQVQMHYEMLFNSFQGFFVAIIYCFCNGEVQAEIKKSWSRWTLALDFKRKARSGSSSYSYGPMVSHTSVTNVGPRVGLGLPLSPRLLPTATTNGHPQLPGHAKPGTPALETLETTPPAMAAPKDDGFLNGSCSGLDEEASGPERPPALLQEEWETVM

CYP3A4 = CYP3A4 (Homo sapiens, UniProt P08684); experiment: Inhibition of CYP3A4 (unknown origin) at 10 uM relative to control; assay type: ADME
Sequence of CYP3A4 (P08684 whole entry): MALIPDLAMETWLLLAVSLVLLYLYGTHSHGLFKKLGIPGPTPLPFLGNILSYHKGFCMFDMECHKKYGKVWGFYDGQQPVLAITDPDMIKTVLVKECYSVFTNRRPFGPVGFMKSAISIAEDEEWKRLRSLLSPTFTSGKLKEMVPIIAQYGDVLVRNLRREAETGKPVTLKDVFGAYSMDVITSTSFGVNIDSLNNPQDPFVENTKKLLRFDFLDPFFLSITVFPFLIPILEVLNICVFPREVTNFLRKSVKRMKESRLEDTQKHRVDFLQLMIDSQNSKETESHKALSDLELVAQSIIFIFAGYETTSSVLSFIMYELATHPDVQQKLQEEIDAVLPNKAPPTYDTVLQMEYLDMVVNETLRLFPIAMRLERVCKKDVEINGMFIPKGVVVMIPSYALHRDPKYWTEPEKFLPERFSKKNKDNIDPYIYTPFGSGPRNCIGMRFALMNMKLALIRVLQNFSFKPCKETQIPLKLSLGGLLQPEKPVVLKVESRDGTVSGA

CYP2C19 = CYP2C19 (Homo sapiens, UniProt P33261); experiment: Inhibition of CYP2C19 (unknown origin) at 10 uM relative to control; assay type: ADME
Sequence of CYP2C19 (P33261 whole entry): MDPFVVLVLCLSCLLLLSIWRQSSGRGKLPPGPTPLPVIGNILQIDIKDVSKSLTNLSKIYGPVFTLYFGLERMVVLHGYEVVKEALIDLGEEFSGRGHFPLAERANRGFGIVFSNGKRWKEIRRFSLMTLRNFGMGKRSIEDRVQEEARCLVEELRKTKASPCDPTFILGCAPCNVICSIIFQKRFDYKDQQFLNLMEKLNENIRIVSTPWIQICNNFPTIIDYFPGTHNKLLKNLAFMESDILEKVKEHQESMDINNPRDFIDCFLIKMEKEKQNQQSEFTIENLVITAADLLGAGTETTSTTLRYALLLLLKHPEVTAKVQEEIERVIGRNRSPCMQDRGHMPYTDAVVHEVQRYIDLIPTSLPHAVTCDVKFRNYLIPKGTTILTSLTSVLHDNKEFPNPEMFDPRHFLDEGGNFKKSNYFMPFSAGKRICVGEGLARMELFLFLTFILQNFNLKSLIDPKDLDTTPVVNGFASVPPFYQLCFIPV

[6] = 1-Octanol/PBS buffer distribution coefficient, log D of the compound at pH 7.4; assay type: physicochemical
[7] = Elimination half life in Sprague-Dawley rat at 5 mg/kg, po by LC-MS/MS analysis; assay type: ADME, organism-based; settings: in vivo, read-out: BBB (converted)
CYP2C8 = molecular target: T2, CYP2C8 (Homo sapiens, UniProt P10632); experiment: Inhibition of CYP2C8 (unknown origin) at 10 uM relative to control; assay type: ADME
T2 sequence (P10632 whole entry): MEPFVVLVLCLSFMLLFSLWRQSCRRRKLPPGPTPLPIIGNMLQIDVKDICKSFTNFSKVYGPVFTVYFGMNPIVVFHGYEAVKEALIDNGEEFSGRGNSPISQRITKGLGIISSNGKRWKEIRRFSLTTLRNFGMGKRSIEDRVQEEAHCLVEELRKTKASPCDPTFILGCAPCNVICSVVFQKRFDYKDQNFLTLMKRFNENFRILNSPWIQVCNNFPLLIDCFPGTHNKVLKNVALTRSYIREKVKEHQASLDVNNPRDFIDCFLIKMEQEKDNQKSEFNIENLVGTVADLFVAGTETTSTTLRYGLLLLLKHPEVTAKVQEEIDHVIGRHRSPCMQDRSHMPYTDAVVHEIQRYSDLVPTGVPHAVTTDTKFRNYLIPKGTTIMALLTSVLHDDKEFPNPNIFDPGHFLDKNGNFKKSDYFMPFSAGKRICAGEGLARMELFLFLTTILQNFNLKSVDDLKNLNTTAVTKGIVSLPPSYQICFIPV

[8] = Plasma clearance in Sprague-Dawley rat at 1 mg/kg, iv by LC-MS/MS analysis; assay type: ADME, organism-based
CYP2D6 = CYP2D6 (Homo sapiens, UniProt P10635); experiment: Inhibition of CYP2D6 (unknown origin) at 10 uM relative to control; assay type: ADME
Sequence of CYP2D6 (P10635 whole entry): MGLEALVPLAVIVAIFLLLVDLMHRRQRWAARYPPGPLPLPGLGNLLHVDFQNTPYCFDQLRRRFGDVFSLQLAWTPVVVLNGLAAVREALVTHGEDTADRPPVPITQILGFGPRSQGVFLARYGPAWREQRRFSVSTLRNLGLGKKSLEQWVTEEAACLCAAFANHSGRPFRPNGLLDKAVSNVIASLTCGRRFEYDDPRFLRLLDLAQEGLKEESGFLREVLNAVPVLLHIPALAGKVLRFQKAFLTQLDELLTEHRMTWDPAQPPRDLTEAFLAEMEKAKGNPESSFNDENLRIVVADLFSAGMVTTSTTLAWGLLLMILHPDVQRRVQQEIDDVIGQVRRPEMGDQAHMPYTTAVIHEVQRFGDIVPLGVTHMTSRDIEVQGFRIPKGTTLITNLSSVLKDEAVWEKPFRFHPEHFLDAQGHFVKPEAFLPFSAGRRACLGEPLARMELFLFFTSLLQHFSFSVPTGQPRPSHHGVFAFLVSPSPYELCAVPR

CYP1A2 = molecular target: T3, CYP1A2 (Homo sapiens, UniProt P05177); experiment: Inhibition of CYP1A2 (unknown origin) at 10 uM relative to control; assay type: ADME
T3 sequence (P05177 whole entry): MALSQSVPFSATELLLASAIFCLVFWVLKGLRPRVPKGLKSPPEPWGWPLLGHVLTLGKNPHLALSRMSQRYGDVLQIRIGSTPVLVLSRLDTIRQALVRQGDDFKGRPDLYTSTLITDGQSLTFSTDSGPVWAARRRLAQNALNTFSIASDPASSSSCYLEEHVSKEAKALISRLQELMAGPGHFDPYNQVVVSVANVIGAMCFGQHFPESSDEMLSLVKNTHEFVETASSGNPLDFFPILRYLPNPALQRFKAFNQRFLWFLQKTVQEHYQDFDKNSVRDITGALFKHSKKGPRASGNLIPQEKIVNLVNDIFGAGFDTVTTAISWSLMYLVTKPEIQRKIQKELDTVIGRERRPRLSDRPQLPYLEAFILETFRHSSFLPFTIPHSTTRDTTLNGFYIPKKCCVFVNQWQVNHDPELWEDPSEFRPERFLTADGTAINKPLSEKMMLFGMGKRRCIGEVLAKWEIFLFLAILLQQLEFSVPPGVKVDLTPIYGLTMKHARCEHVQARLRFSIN

[9] = Volume of distribution at steady state in Sprague-Dawley rat at 1 mg/kg, iv by LC-MS/MS analysis; assay type: ADME, organism-based; settings: in vivo, read-out: Vdss
[10] = AUClast in Sprague-Dawley rat at 5 mg/kg, po by LC-MS/MS analysis; assay type: ADME, organism-based; parameters: dose 5 mg/kg, time 0 - last, route oral; settings: in vivo
[11] = Oral bioavailability in Sprague-Dawley rat at 10 mg/kg by LC-MS/MS analysis; assay type: ADME, organism-based; settings: in vivo
CYP2C9 = CYP2C9 (Homo sapiens, UniProt P11712); experiment: Inhibition of CYP2C9 (unknown origin) at 10 uM relative to control; assay type: ADME
Sequence of CYP2C9 (P11712 whole entry): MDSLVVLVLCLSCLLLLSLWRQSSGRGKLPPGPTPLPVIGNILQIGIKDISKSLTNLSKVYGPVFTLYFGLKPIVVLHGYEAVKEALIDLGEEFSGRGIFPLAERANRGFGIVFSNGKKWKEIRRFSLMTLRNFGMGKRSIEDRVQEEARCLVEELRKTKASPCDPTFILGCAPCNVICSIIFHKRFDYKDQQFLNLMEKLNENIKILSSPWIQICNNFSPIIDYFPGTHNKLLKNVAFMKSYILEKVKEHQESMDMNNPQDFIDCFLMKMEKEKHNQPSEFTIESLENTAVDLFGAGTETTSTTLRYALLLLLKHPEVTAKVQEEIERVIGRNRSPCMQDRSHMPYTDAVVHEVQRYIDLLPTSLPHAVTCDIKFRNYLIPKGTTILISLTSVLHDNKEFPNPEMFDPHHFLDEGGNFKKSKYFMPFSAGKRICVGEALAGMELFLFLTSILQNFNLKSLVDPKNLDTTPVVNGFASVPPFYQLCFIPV

SMILES	remaining at 20 min, 1 µM [1] [%]	solubility [3] [µg/mL]	solubility [4] [µg/mL]	IC50 [5] [µM]	also measured
CC1(C)N=C(C2CCCCC2)c2ccc(C#N)cc2N(c2ccc(NCCNC3CCOCC3)cc2)C1=O	28				degraded [2]: 100%
CC1(C)C(=O)N(c2ccc(NCCNC3CCOCC3)cc2)c2cc(F)ccc2-c2cc(Cl)cnc21	42	960 (≈ 1890 µM)	380 (≈ 747 µM)		
CC1(C)C=C(C2CCCCC2)c2ccc(C#N)cc2N(c2ccc(NCCNC3CCOCC3)cc2)C1=O	97			8.8	
CC1(C)C(=O)N(c2ccc(NCCNC3CCOCC3)cc2)c2cc(Cl)ccc2-c2cc(F)cnc21	19	920 (≈ 1810 µM)	470 (≈ 923 µM)		
CC1(C)C(=O)N(c2ccc(NCCNC3CCOCC3)cc2)c2cc(Cl)ccc2-c2cc(Cl)ccc21	75	36 (≈ 68.6 µM)	4.7 (≈ 8.96 µM)		
CC(C)N1N=C(C2CCCCC2)c2ccc(Cl)cc2N(c2ccc(NCCNC3CCOCC3)cn2)C1=O				4.37	
COc1ccc2c(c1)N(c1ccc(NCCNC3CCOCC3)cc1)C(=O)C(C)(C)c1ncc(Cl)cc1-2	59	250 (≈ 480 µM)	3.8 (≈ 7.29 µM)		
CC1(C)C(=O)N(c2ccc(NCCNC3CCOCC3)cc2)c2cc(C#N)ccc2-c2cc(Cl)cnc21	34	990 (≈ 1920 µM)	720 (≈ 1400 µM)		
Cc1ccc2c(c1)N(c1ccc(NCCNC3CCOCC3)cc1)C(=O)C(C)(C)c1ncc(Cl)cc1-2	52	870 (≈ 1720 µM)	24 (≈ 47.5 µM)		
CC1(C)C=C(C2CCCCC2)c2ccc(Cl)cc2N(c2ccc(NCCNC3CCOCC3)cc2)C1=O	58			0.97	
CC1(C)C(=O)N(c2ccc(NCCNC3CCOCC3)cc2)c2cc(Cl)ccc2-c2cc(Cl)cnc21	65	570 (≈ 1080 µM)	77 (≈ 147 µM)		inhibition at 10 µM (CYP3A4): < 50%; inhibition at 10 µM (CYP2C19): < 50%; logD [6]: 3.5; half-life [7]: 13.1 h; inhibition at 10 µM (CYP2C8): < 50%; clearance [8]: 39 mL/min/kg; inhibition at 10 µM (CYP2D6): < 50%; inhibition at 10 µM (CYP1A2): < 50%; Vd [9]: 29.4 L/kg; AUC(0-t) [10]: 2500 ng·h/mL; bioavailability [11]: 61%; inhibition at 10 µM (CYP2C9): < 50%
Cc1cnc2c(c1)-c1ccc(Cl)cc1N(c1ccc(NCCNC3CCOCC3)cc1)C(=O)C2(C)C	62	> 980	510 (≈ 1010 µM)		
CC1(C)C(=O)N(c2ccc(NCCNC3CCOCC3)cc2)c2cc(Cl)ccc2-c2ccccc21	21	83 (≈ 169 µM)	9.1 (≈ 18.6 µM)	3.2	

— ChEMBL document CHEMBL4619754, “Discovery of novel, potent, and orally bioavailable pyrido[2,3-d][1]benzazepin-6-one antagonists for parathyroid hormone receptor 1” (Bioorg Med Chem, 2020)
